According to PubChem BioAssay (NCI):
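Protocol summary: plate cells (96-well), add compound at 5 concentrations, incubate 48 h, interpolate endpoints linearly. TGI is the concentration that stops growth completely.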

Tests used:
Test in all cases: growth of human tumour cells (NCI), 48 h
[1] = tested on: SF-295 CNS
[2] = tested on: A549 NSCLC
[3] = tested on: HS 578T breast
[4] = tested on: ACHN renal
[5] = tested on: SK-OV-3 ovarian
[6] = tested on: SW-620 colon
[7] = tested on: NCI-H522 lung
[8] = tested on: MDA-MB-435
[9] = tested on: BT-549 breast
[10] = tested on: MDA-N
[11] = tested on: NCI/ADR-RES ovarian
[12] = tested on: LOX IMVI melanoma
[13] = tested on: SK-MEL-2 melanoma
[14] = tested on: SK-MEL-28 melanoma
[15] = tested on: OVCAR-5 ovarian
[16] = tested on: RPMI-8226 leukemia
[17] = tested on: MDA-MB-231 breast
[18] = tested on: TK-10 renal
[19] = tested on: RXF 393 renal
[20] = tested on: SNB-75 CNS

Row | Structure (SMILES) | TGI [1] [µM] | TGI [2] [µM] | TGI [3] [µM] | TGI [4] [µM] | TGI [5] [µM] | TGI [6] [µM] | TGI [7] [µM] | TGI [8] [µM] | TGI [9] [µM] | TGI [10] [µM] | TGI [11] [µM] | TGI [12] [µM] | TGI [13] [µM] | TGI [14] [µM] | TGI [15] [µM] | TGI [16] [µM] | TGI [17] [µM] | TGI [18] [µM] | TGI [19] [µM] | TGI [20] [µM]
1 | C=CCN(C(=O)OC(C)(C)C)[C@H](C)C(=O)N[C@@H](C)C(=O)OC | > 100 | > 100 | > 100 | > 100 | > 100 | > 100 | > 100 | > 100 | > 100 | > 100 | > 100 | > 100 | > 100 | > 100 | > 100 | > 100 | > 100 |  |  | 
2 | NC(=O)NCCCC(NC(=O)OCCCCCCn1ccc(=O)[nH]c1=O)C(=O)O (stereo not given) | > 100 | > 100 | > 100 | > 100 | > 100 | > 100 |  | > 100 | > 100 | > 100 | > 100 | > 100 | > 100 | > 100 | > 100 | > 100 | > 100 | > 100 | > 100 | > 100
3 | CCOC(=O)C1(C(=O)OCC)OC(C)=NC1(C(=O)OC)C(=O)OC | > 100 | > 100 | > 100 | > 100 | > 100 | > 100 |  | > 100 | > 31.6 | > 100 | > 100 | > 100 | > 100 | > 100 | > 100 | > 24.6 | > 100 | > 100 | > 100 | 98.1
4 | NC(=O)Cc1nc2c(N)ncnc2n1C1OC(CO)C(O)C1O (stereo not given) | > 100 | > 100 | > 100 | > 100 | > 100 | > 100 | > 100 | > 100 | > 100 | > 100 | > 100 | > 100 | > 100 | > 100 |  | > 100 | > 100 | > 100 |  | 
5 | N#CC(=N)c1ncn(-c2ccc(N)cc2)c1N | > 100 | > 100 | > 100 | > 100 | > 100 | > 100 | > 100 | > 100 | > 100 | > 100 | > 100 | > 100 | > 100 | > 100 | > 100 | > 100 | > 100 | > 100 |  | > 100
6 | O=C1CSC(c2ccccc2[N+](=O)[O-])N1c1ccc(-c2ccc(-n3c(-c4ccccc4)nc4ccccc4c3=O)cc2)cc1 (stereo not given) | > 100 | > 100 | > 100 | > 100 | > 100 | > 100 | > 100 | > 100 | > 100 | > 100 | > 100 | > 100 | > 100 | > 100 | > 100 | > 100 | > 100 | > 100 |  | 61.3
7 | O=c1ccn(COC(COCc2ccccc2)COCc2ccccc2)c(=O)[nH]1 | > 100 |  | > 100 |  | > 100 | > 100 |  | > 100 | > 100 | > 100 | > 100 | > 100 | > 100 | > 100 | > 100 | > 100 | > 100 | > 100 | > 100 | > 100
8 | COc1cc(-c2cc(=O)c3c(O)c(CC=C(C)C)c(O)cc3o2)ccc1O | 31.2 | > 50 | > 50 | > 50 | > 50 | > 50 |  | 22 | > 50 | 20.2 | > 50 | > 50 | > 50 | 26.7 | > 50 | 36.3 | > 50 | > 50 | > 50 | 
9 | N#Cc1c(N2CCC(O)C2)c2ccccc2n2c1nc1ccccc12 (stereo not given) | > 100 | > 100 | > 100 | 42 |  | > 100 | > 100 | > 100 | > 100 | > 100 | > 100 | > 100 | > 100 | > 100 | > 100 | > 100 | 60.1 | > 100 |  | 62.9
10 | COc1ccc(/C=C2\CCS(=O)(=O)c3ccccc3C2=O)cc1 | 98.9 | > 100 | 82.8 | 47.2 | > 100 | 49.1 |  | 89.8 | 79.8 | 77.3 | 50 | 40.4 | 96.4 | 72 | > 100 | 61 | 75.3 | 61.6 | 46.4 | > 100
11 | C/C(CC(O)(/C=N/O)c1ccccc1)=N/O (stereo not given) | > 100 | > 100 | > 100 | > 100 | > 100 | > 100 | > 100 | > 100 | > 100 | > 100 | > 100 | > 100 | > 100 | > 100 | > 100 | > 100 | > 100 | > 100 |  | 
